A word on the pKd: it is −log10 of the Kd, conventionally taken in molar units.

The structures appear in SMILES notation. pKd: −log10 of the molar value. Where a SMILES comes first, the peptide text is derived from it. Bridges are numbered along the chain shown (N, C = ends). The star is where a group is joined. X3 = O=C(CCOCC(COCCC(=O)NCCOCCOCCOCCOC[C@@]12CO[C@@H](O1)[C@H](Nc1nc(Cl)ns1)[C@@H](O)[C@H]2O)NC(=O)CCCCCn1cc(CCCC(=O)*)nn1)NCCOCCOCCOCCOC[C@@]12CO[C@@H](O1)[C@H](Nc1nc(Cl)ns1)[C@@H](O)[C@H]2O; X5 = O=C(CCCCCn1cc(CCCC(=O)*)nn1)NC(COCc1cn(CCOCCOCCOCCOC[C@H]2OC[C@H](Nc3nccc(C(F)(F)F)n3)[C@@H](O)[C@H]2O)nn1)COCc1cn(CCOCCOCCOCCOC[C@H]2OC[C@H](Nc3nccc(C(F)(F)F)n3)[C@@H](O)[C@H]2O)nn1; X4 = O=C(CCCc1cn(C[C@H]2OC[C@H](Nc3nccc(C(F)(F)F)n3)[C@@H](O)[C@H]2O)nn1)*; PEG4 = NCCOCCOCCOCCOCCC(=O)O Some results are limits rather than exact numbers.

For the assay, the target named is T1, ASGPR (Homo sapiens, UniProt P07306).
T1 sequence (P07306 1-291): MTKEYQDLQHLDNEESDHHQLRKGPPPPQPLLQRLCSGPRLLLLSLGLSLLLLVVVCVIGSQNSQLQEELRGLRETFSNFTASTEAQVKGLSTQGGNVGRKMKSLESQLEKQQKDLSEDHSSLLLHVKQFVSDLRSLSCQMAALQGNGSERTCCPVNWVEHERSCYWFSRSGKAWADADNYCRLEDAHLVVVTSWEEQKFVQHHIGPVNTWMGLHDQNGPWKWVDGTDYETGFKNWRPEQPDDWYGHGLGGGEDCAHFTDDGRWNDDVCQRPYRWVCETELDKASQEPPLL
The assay can be described thus: Affinity to ASGPR by surface plasmon resonance (SPR). (In SPR one partner is held on a chip, and binding of the other changes the refractive index at the surface.)

`COC(=N)c1cc(OC)nc(N[C@H]2CO[C@H](CO)[C@H](O)[C@@H]2O)n1` [A48, methyl 2-(((3S,4R,5R,6R)-4,5-dihydroxy-6-(hydroxymethyl)tetrahydro-2H-pyran-3-yl)amino)-6-methoxypyrimidine-4-carbimidate] gave a pKd of 5.00 to 6.00.

In turn, `CC(C)C[C@@H]1NC(=O)[C@@H](NC(=O)[C@@H](NC(=O)[C@H](CCC(N)=O)NC(=O)[C@H](Cc2c[nH]cn2)NC(=O)CCOCCOCCOCCOCCNC(=O)CCCc2cn(C[C@H]3OC[C@H](Nc4nccc(C(F)(F)F)n4)[C@@H](O)[C@H]3O)nn2)C(C)C)CSSC[C@@H](C(=O)N[C@@H](Cc2ccccc2)C(=O)N[C@@H](CO)C(=O)N[C@H](C(N)=O)[C@@H](C)O)NC(=O)[C@H](C(C)C)NC(=O)[C@@H]2CCCN2C(=O)[C@H](CCCNC(=N)N)NC(=O)CNC(=O)[C@H](CCCNC(=N)N)NC(=O)[C@H](Cc2ccc(O)cc2)NC(=O)[C@H](CO)NC1=O` [Compound 18] ({X4-PEG4}-HQVCLSYRGRPVCFST-NH2; disulfide 4-13) had a pKd of 6.00 to 6.30.

In turn, `O=C(O)COCCOCCOCC(=O)NC(COCCC(=O)NCCOCCOCCOCCOC[C@H]1OC[C@H](Nc2cncc(C(F)(F)F)n2)[C@@H](O)[C@H]1O)COCCC(=O)NCCOCCOCCOCCOC[C@H]1OC[C@H](Nc2cncc(C(F)(F)F)n2)[C@@H](O)[C@H]1O` [A26, 1-((2R,3R,4R,5S)-3,4-dihydroxy-5-((6-(trifluoromethyl)pyrazin-2-yl)amino)tetrahydro-2H-pyran-2-yl)-20-(1-((2R,3R,4R,5S)-3,4-dihydroxy-5-((6-(trifluoromethyl)pyrazin-2-yl)amino)tetrahydro-2H-pyran-2-yl)-15-oxo-2,5,8,11,18-pentaoxa-14-azanonadecan-19-yl)-15,22-dioxo-2,5,8,11,18,24,27,30-octaoxa-14,21-diazadotriacontan-32-oic acid] had a pKd of over 7.00.

`O=C(O)CC(=O)NC(COCCC(=O)NCCOCCOCCOCCOC[C@H]1OC[C@H](Nc2cncc(C(F)(F)F)n2)[C@@H](O)[C@H]1O)COCCC(=O)NCCOCCOCCOCCOC[C@H]1OC[C@H](Nc2cncc(C(F)(F)F)n2)[C@@H](O)[C@H]1O` [A34, 1-((2R,3R,4R,5S)-3,4-dihydroxy-5-((6-(trifluoromethyl)pyrazin-2-yl)amino)tetrahydro-2H-pyran-2-yl)-20-(1-((2R,3R,4R,5S)-3,4-dihydroxy-5-((6-(trifluoromethyl)pyrazin-2-yl)amino)tetrahydro-2H-pyran-2-yl)-15-oxo-2,5,8,11,18-pentaoxa-14-azanonadecan-19-yl)-15,22-dioxo-2,5,8,11,18-pentaoxa-14,21-diazatetracosan-24-oic acid] showed a pKd of over 7.00.

`OC[C@@]12CO[C@@H](O1)[C@H](Nc1cccc(C(F)(F)F)n1)[C@@H](O)[C@H]2O` [A87, (1S,2R,3R,4R,5S)-1-(hydroxymethyl)-4-((6-(trifluoromethyl)pyridin-2-yl)amino)-6,8-dioxabicyclo[3.2.1]octane-2,3-diol] showed a pKd of over 6.00.

With `CN(c1nccc(C(F)(F)F)n1)[C@H]1CO[C@H](CO)[C@H](O)[C@@H]1O` [A60, (2R,3R,4R,5S)-2-(hydroxymethyl)-5-(methyl(4-(trifluoromethyl)pyrimidin-2-yl)amino)tetrahydro-2H-pyran-3,4-diol], the pKd was 5.00 to 6.00.

As to `COCCO[C@@H]1O[C@H](CO)[C@H](O)[C@H](O)[C@H]1NC(=O)C(F)(F)F` [A104, N-((2R,3R,4R,5R,6R)-4,5-dihydroxy-6-(hydroxymethyl)-2-(2-methoxyethoxy)tetrahydro-2H-pyran-3-yl)-2,2,2-trifluoroacetamide], the pKd was 5.00 to 6.00.

Consider `[N-]=[N+]=NCCCCCC(=O)NC(COCCC(=O)NCCOCCOCCOCCOC[C@@]12CO[C@@H](O1)[C@H](Nc1nc(Cl)ns1)[C@@H](O)[C@H]2O)COCCC(=O)NCCOCCOCCOCCOC[C@@]12CO[C@@H](O1)[C@H](Nc1nc(Cl)ns1)[C@@H](O)[C@H]2O` [A14, 3,3′-((2-(6-azidohexanamido)propane-1,3-diyl)bis(oxy))bis(N-(1-((1S,2R,3R,4R,5S)-4-((3-chloro-1,2,4-thiadiazol-5-yl)amino)-2,3-dihydroxy-6,8-dioxabicyclo[3.2.1]octan-1-yl)-2,5,8,11-tetraoxatridecan-13-yl)propanamide)], for which the pKd was 6.30 to 7.00.

Turning to `O=C(O)CC(=O)NC(COCCC(=O)NC[C@H]1OC[C@H](Nc2cncc(C(F)(F)F)n2)[C@@H](O)[C@H]1O)COCCC(=O)NC[C@H]1OC[C@H](Nc2cncc(C(F)(F)F)n2)[C@@H](O)[C@H]1O` [A33, 3-((1,15-bis((2R,3R,4R,5S)-3,4-dihydroxy-5-((6-(trifluoromethyl)pyrazin-2-yl)amino)tetrahydro-2H-pyran-2-yl)-3,13-dioxo-6,10-dioxa-2,14-diazapentadecan-8-yl)amino)-3-oxopropanoic acid], the pKd was over 7.00.

Compound `C=CCO[C@H]1O[C@H](CO)[C@H](O)[C@H](O)[C@H]1N` [A52, (2R,3R,4R,5R,6S)-6-(allyloxy)-5-amino-2-(hydroxymethyl)tetrahydro-2H-pyran-3,4-diol] gave a pKd of under 4.70.

`CC(C)C[C@@H]1NC(=O)[C@@H](NC(=O)[C@@H](NC(=O)[C@H](CCC(N)=O)NC(=O)[C@H](Cc2cnc[nH]2)NC(=O)CCOCCOCCOCCOCCNC(=O)CCCc2cn(CCCCCC(=O)NC(COCc3cn(CCOCCOCCOCCOC[C@H]4OC[C@H](Nc5nccc(C(F)(F)F)n5)[C@@H](O)[C@H]4O)nn3)COCc3cn(CCOCCOCCOCCOC[C@H]4OC[C@H](Nc5nccc(C(F)(F)F)n5)[C@@H](O)[C@H]4O)nn3)nn2)C(C)C)CSSC[C@@H](C(=O)N[C@@H](Cc2ccccc2)C(=O)N[C@@H](CO)C(=O)N[C@H](C(N)=O)[C@@H](C)O)NC(=O)[C@H](C(C)C)NC(=O)[C@@H]2CCCN2C(=O)[C@H](CCCNC(=N)N)NC(=O)CNC(=O)[C@H](CCCNC(=N)N)NC(=O)[C@H](Cc2ccc(O)cc2)NC(=O)[C@H](CO)NC1=O` [Compound 57] ({X5-PEG4}-HQVCLSYRGRPVCFST-NH2; disulfide 4-13): the negative logarithm of the Kd (pKd) is over 7.00.

In turn, `C=CCO[C@H]1O[C@H](Cn2ccnn2)[C@H](O)[C@H](O)[C@H]1Nc1nccc(C(F)(F)F)n1` [A69, (2R,3R,4R,5R,6S)-2-((1H-1,2,3-triazol-1-yl)methyl)-6-(allyloxy)-5-((4-(trifluoromethyl)pyrimidin-2-yl)amino)tetrahydro-2H-pyran-3,4-diol] gave a pKd of over 6.00.

`OC[C@@]12CO[C@@H](O1)[C@H](Nc1ncc3c(C(F)(F)F)n[nH]c3n1)[C@@H](O)[C@H]2O` [A37, (1S,2R,3R,4R,5S)-1-(hydroxymethyl)-4-((3-(trifluoromethyl)-1H-pyrazolo[3,4-d]pyrimidin-6-yl)amino)-6,8-dioxabicyclo[3.2.1]octane-2,3-diol] gave a pKd of under 4.70.

In turn, `COCCO[C@@H]1O[C@H](CO)[C@H](O)[C@H](O)[C@H]1Nc1cncc(C(F)(F)F)n1` [A105, (2R,3R,4R,5R,6R)-2-(hydroxymethyl)-6-(2-methoxyethoxy)-5-((6-(trifluoromethyl)pyrazin-2-yl)amino)tetrahydro-2H-pyran-3,4-diol] gave a pKd of 5.00 to 6.00.

Compound `O=C(O)COCCOCC(=O)NC(COCCC(=O)NCCOCCOCCOCCOC[C@H]1OC[C@H](Nc2nccc(C(F)(F)F)n2)[C@@H](O)[C@H]1O)COCCC(=O)NCCOCCOCCOCCOC[C@H]1OC[C@H](Nc2nccc(C(F)(F)F)n2)[C@@H](O)[C@H]1O` [A24, 1-((2R,3R,4R,5S)-3,4-dihydroxy-5-((4-(trifluoromethyl)pyrimidin-2-yl)amino)tetrahydro-2H-pyran-2-yl)-20-(1-((2R,3R,4R,5S)-3,4-dihydroxy-5-((4-(trifluoromethyl)pyrimidin-2-yl)amino)tetrahydro-2H-pyran-2-yl)-15-oxo-2,5,8,11,18-pentaoxa-14-azanonadecan-19-yl)-15,22-dioxo-2,5,8,11,18,24,27-heptaoxa-14,21-diazanonacosan-29-oic acid] showed a pKd of over 7.00.

In turn, `O[C@@H]1[C@H](O)[C@@H](Nc2cncc(C(F)(F)F)n2)CO[C@@H]1CN1CCCCC1` [A96, (2R,3R,4R,5S)-2-(piperidin-1-ylmethyl)-5-((6-(trifluoromethyl)pyrazin-2-yl)amino)tetrahydro-2H-pyran-3,4-diol] showed a pKd of 5.00 to 6.00.

Compound `OC[C@@]12CO[C@@H](O1)[C@H](Nc1nc(Cl)ncc1C(F)(F)F)[C@@H](O)[C@H]2O` [A114, (1S,2R,3R,4R,5S)-4-((2-chloro-5-(trifluoromethyl)pyrimidin-4-yl)amino)-1-(hydroxymethyl)-6,8-dioxabicyclo[3.2.1]octane-2,3-diol] gave a pKd of over 6.00.

Turning to `CC(C)C[C@@H]1NC(=O)[C@@H](NC(=O)[C@@H](NC(=O)[C@H](CCC(N)=O)NC(=O)[C@H](Cc2c[nH]cn2)NC(=O)CCOCCOCCOCCOCCNC(=O)CCCc2cn(CCCCCC(=O)NC(COCCC(=O)NCCOCCOCCOCCOC[C@@]34CO[C@@H](O3)[C@H](Nc3nc(Cl)ns3)[C@@H](O)[C@H]4O)COCCC(=O)NCCOCCOCCOCCOC[C@@]34CO[C@@H](O3)[C@H](Nc3nc(Cl)ns3)[C@@H](O)[C@H]4O)nn2)C(C)C)CSSC[C@@H](C(=O)N[C@@H](Cc2ccccc2)C(=O)N[C@@H](CO)C(=O)N[C@H](C(N)=O)[C@@H](C)O)NC(=O)[C@H](C(C)C)NC(=O)[C@@H]2CCCN2C(=O)[C@H](CCCNC(=N)N)NC(=O)CNC(=O)[C@H](CCCNC(=N)N)NC(=O)[C@H](Cc2ccc(O)cc2)NC(=O)[C@H](CO)NC1=O` [Compound 19] ({X3-PEG4}-HQVCLSYRGRPVCFST-NH2; disulfide 4-13), the pKd is over 7.00.

The compound `[N-]=[N+]=NC[C@H]1OC[C@H](Nc2cncc(C(F)(F)F)n2)[C@@H](O)[C@H]1O` [A86, (2R,3R,4R,5S)-2-(azidomethyl)-5-((6-(trifluoromethyl)pyrazin-2-yl)amino)tetrahydro-2H-pyran-3,4-diol] had a negative-log Kd (pKd) of over 6.00.
